# Assay results published in patent publication US10233201B2, “Class of HDAC inhibitors expands the renal progenitor cells population and improves the rate of recovery from acute kidney injury” (University of Pittsburgh—Of the Commonwealth System of …, priority 2012, dated 2019).
# Test system: Acetylated Histone H3 K9 (Ac-H3 K9)
# Test: Renal histone H3 K9 acetylation after single injection in CD1 mice
# Format: in vivo, mouse
# Method: PTBA analogues are soluble in 1% DMSO/water, are administered subcutaneously as a single injection in adult CD1 mice, and kidneys harvested at 12, 24 and 48 hours to evaluate histone acetylation (which should increase with HDACi). PTBA analogs are used at a dose range determined from comparative dose efficacy with m4PTB in the secondary zebrafish screen. Acetylated Histone H3 K9 (Ac-H3 K9) is evaluated, as this is most easily detected by Western blot in nuclear extracts from mouse renal tissues. Preliminary studies compared the effect of Trichostatin A (an established, but toxic HDACi) at an effective dose in the zebrafish screen ([…]) with an equivalent dose of m4PTB (0.8 mM), and then X2 and X4 dose increments (molar concentration in vivo based on estimate uniform distribution relative to body mass of water). 3.4 mg/kg (4×) m4PTB induced maximal expression of Ac-H3 K9 after 24 hours (FIG. 36). This effect was increased compared with TSA or lower doses of m4PTB, so we elected to use this dose of m4PTB (3.4 mg/kg) for AKI studies in mice. […]
# We evaluated efficacy and effective dosage of a second-generation PTBA analogue, m4PTB, by determining the kinetics of renal Histone H3 K9 acetylation (H3K9Ac) following a single SC injection. […]
smiles,measurement,setting,value
"COC(=O)CCCSc1ccccc1 [UPHD-00025, methyl 4-(phenylsulfanyl) butanoate]",persistence of H3K9Ac induction,3.4 mg/kg single SC injection,24 h
same,dose inducing maximal Ac-H3 K9 expression in kidney,"single SC injection, after 24 hours",3.4 mg/kg
